# Source: patent US9944602B2, “Piperidinone herbicides” (E. I. DU PONT DE NEMOURS AND COMPANY, priority 2014, dated 2018)
# Tests used:
# Assay type in all cases: in vivo
# [1] = system: galium (catchweed bedstraw, Galium aparine); experiment: Test A postemergence galium; conditions: 0 to 100 scale, 0 is no effect, 100 is complete control
# In short: (§1)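 Visual injury rating, 0–100 scale (0 = no effect, 100 = complete control), versus untreated controls ~10 d after treatment in greenhouse. Pre: directed soil spray onto seeded loam/sand. Post: foliar spray at 2–10 cm, 1–2 leaf stage. Solvent-surfactant formulation.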
# [2] = system: ragweed (common ragweed, Ambrosia elatior); experiment: Test A postemergence ragweed; conditions: 0 to 100 scale, 0 is no effect, 100 is complete control
# In short: as §1
# [3] = system: barnyardgrass (Echinochloa crus-galli); experiment: Test C flooded paddy test barnyardgrass; conditions: Table C, Flood, scale 0 to 100
# Source text: (§2) Plant species in the flooded paddy test consisted of rice (Oryza sativa), sedge, umbrella (small-flower umbrella sedge, Cyperus difformis), ducksalad (Heteranthera limosa), and barnyardgrass (Echinochloa crus-galli) grown to the 2-leaf stage for testing. At time of treatment, test pots were flooded to 3 cm above the soil surface, treated by application of test compounds directly to the paddy water, and then maintained at that water depth for the duration of the test. Treated plants and controls were maintained in a greenhouse for 13 to 15 d, after which time all species were compared to controls and visually evaluated. Plant response ratings, summarized in Table C, are based on a scale of 0 to 100 where 0 is no effect and 100 is complete control. A dash (-) response means no test result.
# [4] = system: ducksalad (Heteranthera limosa); experiment: Test C flooded paddy test ducksalad; conditions: Table C, Flood, scale 0 to 100
# Source text: as §2
# [5] = system: pigweed (Amaranthus retroflexus); experiment: Test A preemergence pigweed; conditions: 0 to 100 scale, 0 no effect, 100 complete control
# In short: as §1
# [6] = system: barnyardgrass (Echinochloa crus-galli); experiment: Test A postemergence barnyardgrass; conditions: 0 to 100 scale, 0 is no effect, 100 is complete control
# In short: as §1
# [7] = system: ryegrass, Italian (Italian ryegrass, Lolium multiflorum); experiment: Test A preemergence ryegrass, Italian; conditions: 0 to 100 scale, 0 no effect, 100 complete control
# In short: as §1
# kochia (Kochia scoparia) [8] = experiment: Test A preemergence kochia; conditions: 0 to 100 scale, 0 no effect, 100 complete control
# In short: as §1
# [9] = system: barnyardgrass (Echinochloa crus-galli); experiment: Test A preemergence barnyardgrass; conditions: 0 to 100 scale
# In short: as §1
# [10] = system: blackgrass (Alopecurus myosuroides); experiment: Test A postemergence blackgrass; conditions: 0 to 100 scale, 0 is no effect, 100 is complete control
# In short: as §1
# [11] = system: wheat (Triticum aestivum); experiment: Test A postemergence wheat; conditions: 0 to 100 scale, 0 is no effect, 100 is complete control
# In short: as §1
# corn (Zea mays) = experiment: Test A postemergence corn; conditions: 0 to 100 scale, 0 is no effect, 100 is complete control
# In short: as §1
# [12] = system: foxtail, giant (giant foxtail, Setaria faberii); experiment: Test A preemergence foxtail, giant; conditions: 0 to 100 scale, 0 no effect, 100 complete control
# In short: as §1
# kochia (Kochia scoparia) [13] = experiment: Test A postemergence kochia; conditions: 0 to 100 scale, 0 is no effect, 100 is complete control
# In short: as §1
# [14] = system: foxtail, giant (giant foxtail, Setaria faberii); experiment: Test A postemergence foxtail, giant; conditions: 0 to 100 scale, 0 is no effect, 100 is complete control
# In short: as §1
# [15] = system: ryegrass, Italian (Italian ryegrass, Lolium multiflorum); experiment: Test A postemergence ryegrass, Italian; conditions: 0 to 100 scale, 0 is no effect, 100 is complete control
# In short: as §1
# [16] = system: sedge, umbrella (small-flower umbrella sedge, Cyperus difformis); experiment: Test C flooded paddy test sedge, umbrella; conditions: Table C, Flood, scale 0 to 100
# Source text: as §2
# rice (Oryza sativa) = experiment: Test C flooded paddy test rice; conditions: Table C, Flood, scale 0 to 100
# Source text: as §2
# [17] = system: ragweed (common ragweed, Ambrosia elatior); experiment: Test A preemergence ragweed; conditions: 0 to 100 scale, 0 no effect, 100 complete control
# In short: as §1
# [18] = system: pigweed (Amaranthus retroflexus); experiment: Test A postemergence pigweed; conditions: 0 to 100 scale, 0 is no effect, 100 is complete control
# In short: as §1
structure (smiles),measurement,setting,value
O=C1NCCC(c2ccc(C(F)(F)F)cc2)C1C(=O)Nc1ccccc1C(F)(F)F (racemic) [Compound 12],"Plant response rating, Galium",[1]; 125 g ai/ha,0
same,"Plant response rating, Galium",[1]; 500 g ai/ha,0
same,"Plant response rating, Ragweed",[2]; 125 g ai/ha,0
same,"Plant response rating, Ragweed",[2]; 500 g ai/ha,0
same,Plant response rating,[3]; 125 g ai/ha,0
same,Plant response rating,[3]; 250 g ai/ha,15
same,Plant response rating,[3]; 500 g ai/ha,20
same,Plant response rating,[3]; 1000 g ai/ha,25
same,Plant response rating,[4]; 125 g ai/ha,0
same,Plant response rating,[4]; 250 g ai/ha,35
same,Plant response rating,[4]; 500 g ai/ha,75
same,Plant response rating,[4]; 1000 g ai/ha,100
same,Pigweed plant response rating,[5]; 125 g ai/ha,0
same,Pigweed plant response rating,[5]; 500 g ai/ha,0
same,"Plant response rating, Barnyardgrass",[6]; 125 g ai/ha,20
same,"Plant response rating, Barnyardgrass",[6]; 500 g ai/ha,60
same,"Ryegrass, Italian plant response rating",[7]; 125 g ai/ha,0
same,"Ryegrass, Italian plant response rating",[7]; 500 g ai/ha,0
same,Kochia plant response rating,kochia (Kochia scoparia) [8]; 125 g ai/ha,0
same,Kochia plant response rating,kochia (Kochia scoparia) [8]; 500 g ai/ha,0
same,Barnyardgrass plant response rating,"[9]; 125 g ai/ha, 0 no effect, 100 complete control",20
same,"Plant response rating, Barnyardgrass","[9]; 500 g ai/ha, 0 is no effect, 100 is complete control",70
same,"Plant response rating, Blackgrass",[10]; 125 g ai/ha,0
same,"Plant response rating, Blackgrass",[10]; 500 g ai/ha,0
same,"Plant response rating, Wheat",[11]; 125 g ai/ha,0
same,"Plant response rating, Wheat",[11]; 500 g ai/ha,0
same,"Plant response rating, Corn",corn (Zea mays); 125 g ai/ha,0
same,"Plant response rating, Corn",corn (Zea mays); 500 g ai/ha,0
same,"Foxtail, Giant plant response rating",[12]; 125 g ai/ha,20
same,"Foxtail, Giant plant response rating",[12]; 500 g ai/ha,70
same,"Plant response rating, Kochia",kochia (Kochia scoparia) [13]; 125 g ai/ha,0
same,"Plant response rating, Kochia",kochia (Kochia scoparia) [13]; 500 g ai/ha,0
same,"Plant response rating, Foxtail, Giant",[14]; 125 g ai/ha,20
same,"Plant response rating, Foxtail, Giant",[14]; 500 g ai/ha,60
same,"Plant response rating, Ryegrass, Italian",[15]; 125 g ai/ha,0
same,"Plant response rating, Ryegrass, Italian",[15]; 500 g ai/ha,0
same,Plant response rating,[16]; 125 g ai/ha,0
same,Plant response rating,[16]; 250 g ai/ha,0
same,Plant response rating,[16]; 500 g ai/ha,10
same,Plant response rating,[16]; 1000 g ai/ha,25
same,Plant response rating,rice (Oryza sativa); 125 g ai/ha,0
same,Plant response rating,rice (Oryza sativa); 250 g ai/ha,0
same,Plant response rating,rice (Oryza sativa); 500 g ai/ha,0
same,Plant response rating,rice (Oryza sativa); 1000 g ai/ha,0
same,Ragweed plant response rating,[17]; 125 g ai/ha,0
same,Ragweed plant response rating,[17]; 500 g ai/ha,0
same,"Plant response rating, Pigweed",[18]; 125 g ai/ha,0
same,"Plant response rating, Pigweed",[18]; 500 g ai/ha,0
